Test results: paper PMC6943434, “Novel Homo-Bivalent and Polyvalent Compounds Based on Ligustrazine and Heterocyclic Ring as Anticancer Agents” (Molecules, 2019)
Where two headings read alike, the source gives them in different places.

What was measured:
[1] = system: HeLa (cervical cancer cell line); test: MTT cell viability assay, HeLa; format: cell-based; details: Homo sapiens, 48 h, read-out: Antiproliferative Activity IC50 ± SEM, HeLa
Method: (§1) The tested cells were obtained from Shanghai Institute of Biochemistry and Cell Biology of the Chinese Academy of Sciences (Shanghai, China). HeLa and Hep G2 cell lines were cultured in Dulbecco’s modified Eagle’s medium (DMEM; gibco, Life Technologies, Carlsbad, CA, USA) supplemented with 10% fetal bovine serum (FBS; Biological Industries), 100 U/mL penicillin-streptomycin (PS; gibco, Life Technologies, Carlsbad, CA, USA). MCF-7 and A549 cell lines were maintained in RPMI-1640 media (gibco, Life Technologies, Carlsbad, CA, USA) supplemented with 10% FBS and 100 U/mL PS. FaDu cell lines were cultured in minimum essential medium (MEM; Gibco, Life Technologies, Carlsbad, CA, USA) supplemented with 10% FBS and 100 U/mL PS. MCF 10A cell lines were maintained in Mammary MEGM kit (Lonza/Clonetics) supplemented with 100 ng/mL cholera toxin (Sigma, Shanghai, China). Cell lines were grown at 37 °C in a humidified atmosphere of 5% CO2.
(§2) The growth-inhibitory effects against HeLa, Hep G2, MCF-7, FaDu, and A549 cancer cells and normal cell lines MCF 10A were determined by MTT assay. […] Cells were seeded in 96 well plates at a density of 1 × 10^4 cells per well and incubated for 24 h at 37 °C in a humidified atmosphere of 5% CO2. The cells were then incubated with various concentrations of drugs for 48 h in a 5% CO2 incubator at 37 °C. After treatment with 1 mg/mL 3-(4,5-dimethylthiazol-2-yl)-2,5-diphenyltetrazolium bromide (MTT) solution for 4 h, the formazan crystals were dissolved in 100 µL DMSO in each well. Plates were read on a microplate reader (Thermo Varioskan Flash 3001) at 490 nm. The experiment was performed in triplicate. The inhibitory concentration at 50% (IC50) was calculated based on concentration-inhibition relationships via regression using SPSS software (Version 17.0).

[2] = system: Hep G2 (hepatocarcinoma cell line); test: MTT cell viability assay, Hep G2; format: cell-based; details: Homo sapiens, HepG2, 48 h, read-out: Antiproliferative Activity IC50 ± SEM, Hep G2
Method: as §1, §2

[3] = system: MCF-7 (breast cancer cell line); test: MTT cell viability assay, MCF-7; format: cell-based; details: Homo sapiens, MCF7, 48 h, read-out: Antiproliferative Activity IC50 ± SEM, MCF-7
Method: as §1, §2

[4] = system: FaDu (head and neck squamous carcinoma cell line); test: MTT cell viability assay, FaDu; format: cell-based, human
Method: as §1, §2

[5] = system: A549 (epithelial cancer cell line); test: MTT cell viability assay, A549; format: cell-based; details: Homo sapiens, 48 h, read-out: Antiproliferative Activity IC50 ± SEM, A549
Method: as §1, §2

[6] = system: MCF 10A (normal mammary epithelial cell); test: MTT cell viability assay, MCF 10A; format: cell-based; details: Homo sapiens, 48 h, normal cells, read-out: Antiproliferative Activity IC50 ± SEM, MCF 10A
[7] = Homo sapiens, FaDu, 48 h, MTT, 48 h; read-out: Antiproliferative Activity IC50 ± SEM, FaDu
[8] = SI = IC50 (MCF 10A)/IC50 (FaDu)

Row | Compound | IC50 [1] [µM] | IC50 [2] [µM] | IC50 [3] [µM] | IC50 [4, 7] [µM] | IC50 [5] [µM] | IC50 [6] [µM] | SI: selectivity index [4, 8] | IC50 ([4]; MTT, 48 h; read-out: Antiproliferative Activity IC50 ± SEM, FaDu) [µM] | IC50 ([4]; Homo sapiens, FaDu; MTT, 48 h; read-out: Antiproliferative Activity IC50 ± SEM, FaDu) [µM]
1 | Cc1nc(C)c(CN(CCCCCCN(Cc2nc(C)c(C)nc2C)Cc2nc(C)c(C)nc2C)Cc2nc(C)c(C)nc2C)nc1C [Compound 6d, N^1,N^1,N^6,N^6-Tetrakis((3,5,6-Trimethylpyrazin-2-yl)Methyl)Hexane-1,6-Diamine] | > 100 | > 100 | > 100 | > 100 | > 100 | > 100 | – | – | –
2 | O=C(NCCCCCCCCCCNC(=O)c1cccnc1)c1cccnc1 [Compound 10e, N,N′-(Decane-1,10-Diyl)Dinicotinamide] | > 100 | > 100 | > 100 | – | 2.94 ± 0.25 | 38.6 ± 2.48 | 154.40 | – | –
3 | Cc1nc(C)c(CN(CCO)Cc2nc(C)c(C)nc2C)nc1C [Compound 6i, 2-(Bis((3,5,6-Trimethylpyrazin-2-yl)Methyl)Amino)Ethanol] | > 100 | > 100 | > 100 | > 100 | > 100 | > 100 | – | – | –
4 | O=C(/C=C/c1ccccc1)OCCOCCOCCOC(=O)/C=C/c1ccccc1 [Compound 9l, (Ethane-1,2-Diylbis(Oxy))Bis(Ethane-2,1-Diyl) (2E,2′E)-Bis(3-Phenylacrylate)] | > 20 | > 20 | > 20 | > 20 | > 20 | > 20 | – | – | –
5 | O=C(/C=C/c1ccccc1)NCCCCCCCCNC(=O)/C=C/c1ccccc1 [Compound 9d, (2E,2′E)-N,N′-(Octane-1,8-Diyl)Bis(3-Phenylacrylamide)] | > 20 | > 20 | > 20 | 1.05 ± 0.091 | > 20 | > 20 | >18.98 | – | –
6 | Cc1nc(C)c(CN(CCCN(Cc2nc(C)c(C)nc2C)Cc2nc(C)c(C)nc2C)Cc2nc(C)c(C)nc2C)nc1C [Compound 6b, N^1,N^1,N^3,N^3-Tetrakis((3,5,6-Trimethylpyrazin-2-yl)Methyl)Propane-1,3-Diamine] | > 100 | > 100 | > 100 | > 100 | > 100 | > 100 | – | – | –
7 | Cc1nc(C)c(CN(CCCCN(Cc2nc(C)c(C)nc2C)Cc2nc(C)c(C)nc2C)Cc2nc(C)c(C)nc2C)nc1C [Compound 6c, N^1,N^1,N^4,N^4-Tetrakis((3,5,6-Trimethylpyrazin-2-yl)Methyl)Butane-1,4-Diamine] | > 100 | > 100 | > 100 | > 100 | > 100 | > 100 | – | – | –
8 | O=C(NCCCCCCCCCCNC(=O)c1ccc2ncccc2c1)c1ccc2ncccc2c1 [Compound 18e, N,N′-(Decane-1,10-Diyl)Bis(Quinoline-6-Carboxamide)] | > 20 | > 20 | > 20 | < 1 | > 20 | > 20 | >28.69 | 0.697 ± 0.021 | –
9 | COc1cc(OC)cc(C(=O)NCCCCCCCCCCNC(=O)c2cc(OC)cc(OC)c2)c1 [Compound 33e, N,N′-(Decane-1,10-Diyl)Bis(3,5-Dimethoxybenzamide)] | > 20 | > 20 | > 20 | 10.4 ± 0.949 | > 20 | > 20 | >1.92 | – | –
10 | Cc1nc(C)c(C(=O)NCCCCNC(=O)c2nc(C)c(C)nc2C)nc1C [Compound 8b, N,N′-(Butane-1,4-Diyl)Bis(3,5,6-Trimethylpyrazine-2-Carboxamide)] | > 100 | > 100 | > 100 | > 100 | > 100 | > 100 | – | – | –
11 | Cc1nc(C)c(C(=O)NCCCCCCCCNC(=O)c2nc(C)c(C)nc2C)nc1C [Compound 8d, N,N′-(Octane-1,8-Diyl)Bis(3,5,6-Trimethylpyrazine-2-Carboxamide)] | 3.31 ± 0.14 | > 20 | 0.48 ± 0.003 | 0.11 ± 0.03 | 6.35 ± 0.05 | 2.69 ± 0.46 | 24.45 | – | –
12 | O=C(NCCCCCCCCCCNC(=O)c1cnc2ccccc2c1)c1cnc2ccccc2c1 [Compound 17e, N,N′-(Decane-1,10-Diyl)Bis(Quinoline-3-Carboxamide)] | > 20 | > 20 | > 20 | – | > 20 | > 20 | >84.75 | – | –
13 | Cc1nc(C)c(CN(CCCCCCCCN(Cc2nc(C)c(C)nc2C)Cc2nc(C)c(C)nc2C)Cc2nc(C)c(C)nc2C)nc1C [Compound 6e, N^1,N^1,N^8,N^8-Tetrakis((3,5,6-Trimethylpyrazin-2-yl)Methyl)Octane-1,8-Diamine] | 62.7 ± 4.19 | 50.8 ± 1.35 | 66.36 ± 0.05 | 49.5 ± 1.61 | > 100 | 85.4 ± 2.28 | 1.73 | – | –
14 | COc1ccc(/C=C/C(=O)NCCCCCCCCCCNC(=O)/C=C/c2ccc(OC)c(O)c2)cc1O [Compound 26e, (2E,2′E)-N,N′-(Decane-1,10-Diyl)Bis(3-(3-Hydroxy-4-Methoxyphenyl)Acrylamide)] | > 20 | > 20 | > 20 | > 20 | > 20 | > 20 | – | – | –
15 | O=C(/C=C/c1ccccc1)OCCOCCOCCOCCOC(=O)/C=C/c1ccccc1 [Compound 9m, ((Oxybis(Ethane-2,1-Diyl))Bis(Oxy))Bis(Ethane-2,1-Diyl) (2E,2′E)-bis(3-Phenylacrylate)] | > 20 | > 20 | > 20 | > 20 | > 20 | > 20 | – | – | –
16 | Nc1ccc(C(=O)NCCCCCCCCCCNC(=O)c2ccc(N)cc2)cc1 [Compound 31e, N,N′-(Decane-1,10-Diyl)Bis(4-Aminobenzamide)] | > 20 | > 20 | > 20 | 5.59 ± 0.628 | > 20 | > 20 | >3.58 | – | –
17 | O=C(/C=C/c1ccccc1)NCCOCCOCCOCCNC(=O)/C=C/c1ccccc1 [Compound 9k, (2E,2′E)-N,N′-(((Oxybis(Ethane-2,1-Diyl))Bis(Oxy))Bis(Ethane-2,1-Diyl))Bis(3-Phenylacrylamide)] | > 20 | > 20 | > 20 | 4.45 ± 0.208 | > 20 | > 20 | >4.50 | – | –
18 | Nc1cccc(C(=O)NCCCCCCCCCCNC(=O)c2cccc(N)c2)c1 [Compound 32e, N,N′-(Decane-1,10-Diyl)bis(3-Aminobenzamide)] | > 20 | > 20 | > 20 | > 20 | > 20 | > 20 | – | – | –
19 | Cc1nc(C)c(CN(CCN(Cc2nc(C)c(C)nc2C)Cc2nc(C)c(C)nc2C)Cc2nc(C)c(C)nc2C)nc1C [Compound 6a, N^1,N^1,N^2,N^2-Tetrakis((3,5,6-Trimethylpyrazin-2-yl)Methyl)Ethane-1,2-Diamine] | > 100 | > 100 | > 100 | > 100 | > 100 | 90.3 ± 3.41 | – | – | –
20 | O=C(NCCCCCCCCCCNC(=O)c1ccco1)c1ccco1 [Compound 14e, N,N′-(Decane-1,10-Diyl)Bis(Furan-2-Carboxamide)] | > 100 | 97.8 ± 1.55 | > 100 | 6.33 ± 0.65 | 44.37 ± 0.29 | 19.8 ± 1.41 | 3.13 | – | –
21 | COc1cccc2c1C(=O)c1c(O)c3c(c(O)c1C2=O)C[C@@](O)(C(=O)CO)C[C@@H]3O[C@H]1C[C@H](N)[C@H](O)[C@H](C)O1 [DOX, doxorubicin, reference compound] | 11.4 ± 0.48 | 28 ± 1.09 | 6 ± 0.07 | – | > 100 | 0.55 ± 0.03 | – | – | 1.27 ± 0.13
22 | O=C(NCCCCCCCCCCNC(=O)c1ccncc1)c1ccncc1 [Compound 13e, N,N′-(Decane-1,10-Diyl)Diisonicotinamide] | > 100 | > 100 | > 100 | 48.3 ± 3.17 | > 100 | > 100 | >2.07 | – | –
